Results reported in PubChem BioAssay AID248 (DTP/NCI, 2004).
“And” between values parts separate entries of the source, which are not always exact repeats. Equal entries are not always repeated. Inconclusive results and toxic doses are left out. Cut-off read from the data, not from the text of the source: active = T/C of 150% or more; inactive = T/C below 125%.

System: L1210 leukemia ip in BDF1 mice, survival T/C
Assay: NCI In Vivo Anticancer Drug Screen. Data for tumor model L1210 Leukemia (intraperitoneal) in B6D2F1 (BDF1) mice
Conditions: endpoint: mean survival time, higher = longer survival
In short: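 Antitumor effect is assessed in tumor-bearing animals. Survival in the compound arm is compared with a vehicle-dosed control arm and expressed as their quotient.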

[1] = dose: 100.0 mg/kg/injection, schedule: Q04DX003 (ip), vehicle: Klucel (hydroxypropylcellulose) (HPC)
[2] = dose: 200.0 mg/kg/injection, schedule: Q04DX003 (ip), vehicle: Klucel (hydroxypropylcellulose) (HPC)
[3] = dose: 400.0 mg/kg/injection, schedule: Q04DX003 (ip), vehicle: Klucel (hydroxypropylcellulose) (HPC)
[4] = dose: 100.0 mg/kg/injection, schedule: Q01DX009 (ip), vehicle: saline
[5] = dose: 200.0 mg/kg/injection, schedule: Q01DX009 (ip), vehicle: saline
[6] = dose: 400.0 mg/kg/injection, schedule: Q01DX009 (ip), vehicle: saline
[7] = dose: 100.0 mg/kg/injection, schedule: Q04DX003 (ip), vehicle: saline
[8] = dose: 200.0 mg/kg/injection, schedule: Q04DX003 (ip), vehicle: saline

Measured: T/C

Cc1ccc(/C=N/N=C(N)N)cc1
inactive: dose: 15.0 mg/kg/injection, schedule: Q01DX Z (ip), vehicle: saline 104 % of control | dose: 30.0 mg/kg/injection, schedule: Q01DX Z (ip), vehicle: saline 98 % of control | dose: 30.0 mg/kg/injection, schedule: Q01DX Z (oral), vehicle: saline 99 % of control | dose: 60.0 mg/kg/injection, schedule: Q01DX Z (ip), vehicle: saline 96 % of control | dose: 60.0 mg/kg/injection, schedule: Q01DX Z (oral), vehicle: saline 94 % of control | dose: 120.0 mg/kg/injection, schedule: Q01DX Z (oral), vehicle: saline 97 % of control | dose: 240.0 mg/kg/injection, schedule: Q01DX Z (oral), vehicle: saline 100 % of control

CC1(CO)COCOC1
inactive: dose: 50.0 mg/kg/injection, schedule: Q01DX009 (ip), vehicle: acetone 104 % of control | dose: 100.0 mg/kg/injection, schedule: Q01DX009 (ip), vehicle: acetone 108 % of control | dose: 100.0 mg/kg/injection, schedule: Q04DX003 (ip), vehicle: acetone 95 % of control | dose: 200.0 mg/kg/injection, schedule: Q01DX009 (ip), vehicle: acetone 104 % of control | dose: 200.0 mg/kg/injection, schedule: Q04DX003 (ip), vehicle: acetone 105 % of control | dose: 400.0 mg/kg/injection, schedule: Q04DX003 (ip), vehicle: acetone 97 % of control

O=C(Nc1ccc(S(=O)(=O)O)c2ccccc12)c1ccc(C(=O)Nc2ccc(S(=O)(=O)O)c3ccccc23)cc1
inactive: dose: 62.5 mg/kg/injection, schedule: Q01DX Z (ip), vehicle: carboxymethylcellulose (CMC) 92 % of control | dose: 125.0 mg/kg/injection, schedule: Q01DX Z (ip), vehicle: carboxymethylcellulose (CMC) 89 % of control | dose: 250.0 mg/kg/injection, schedule: Q01DX Z (ip), vehicle: carboxymethylcellulose (CMC) 90 % of control | dose: 500.0 mg/kg/injection, schedule: Q01DX Z (ip), vehicle: carboxymethylcellulose (CMC) 89 % of control

CCOC(=O)c1ccc(NC(=O)Nc2cc(Cl)ccc2C)cc1
inactive: dose: 25.0 mg/kg/injection, schedule: Q01DX009 (ip), vehicle: Klucel (hydroxypropylcellulose) (HPC) 103 % of control | dose: 50.0 mg/kg/injection, schedule: Q01DX009 (ip), vehicle: Klucel (hydroxypropylcellulose) (HPC) 108 % of control | dose: 100.0 mg/kg/injection, schedule: Q01DX009 (ip), vehicle: Klucel (hydroxypropylcellulose) (HPC) 87 % of control and 89 % of control | dose: 200.0 mg/kg/injection, schedule: Q01DX009 (ip), vehicle: Klucel (hydroxypropylcellulose) (HPC) 98 % of control

O=[N+]([O-])c1cccc(C(O)CC(O)(C(F)(F)F)C(F)(F)F)c1 (stereo unspecified)
inactive: dose: 100.0 mg/kg/injection, schedule: Q01DX009 (ip), vehicle: saline with Tween-80 98 % of control | dose: 100.0 mg/kg/injection, schedule: Q04DX003 (ip), vehicle: saline with Tween-80 95 % of control | dose: 200.0 mg/kg/injection, schedule: Q01DX009 (ip), vehicle: saline with Tween-80 101 % of control | dose: 200.0 mg/kg/injection, schedule: Q04DX003 (ip), vehicle: saline with Tween-80 97 % of control | dose: 400.0 mg/kg/injection, schedule: Q01DX009 (ip), vehicle: saline with Tween-80 95 % of control | dose: 400.0 mg/kg/injection, schedule: Q04DX003 (ip), vehicle: saline with Tween-80 103 % of control

CCOC(=O)N=C=O
inactive: dose: 100.0 mg/kg/injection, schedule: Q01DX009 (ip), vehicle: water 103 % of control | dose: 100.0 mg/kg/injection, schedule: Q04DX003 (ip), vehicle: water 95 % of control | dose: 200.0 mg/kg/injection, schedule: Q01DX009 (ip), vehicle: water 100 % of control | dose: 200.0 mg/kg/injection, schedule: Q04DX003 (ip), vehicle: water 101 % of control | dose: 400.0 mg/kg/injection, schedule: Q04DX003 (ip), vehicle: water 101 % of control

Nc1cc(/C=C/c2ccc(/C=C/c3ccc(S(=O)(=O)F)cc3)cc2)nc(N)n1
inactive: dose: 50.0 mg/kg/injection, schedule: Q01DX001 (ip), vehicle: saline with Tween-80 87 % of control | dose: 100.0 mg/kg/injection, schedule: Q01DX001 (ip), vehicle: saline with Tween-80 92 % of control

Cc1c(N=Nc2ccccc2)c(=O)[nH]n1-c1ccccc1
inactive: dose: 100.0 mg/kg/injection, schedule: Q01DX001 (ip), vehicle: Klucel (hydroxypropylcellulose) (HPC) 105 % of control | [1] 111 % of control | dose: 200.0 mg/kg/injection, schedule: Q01DX001 (ip), vehicle: Klucel (hydroxypropylcellulose) (HPC) 107 % of control | [2] 106 % of control | dose: 400.0 mg/kg/injection, schedule: Q01DX001 (ip), vehicle: Klucel (hydroxypropylcellulose) (HPC) 103 % of control | [3] 96 % of control

CC(=O)NS(=O)(=O)c1ccc(N=Cc2cc(Cl)cc(Cl)c2O)cc1
inactive: [4] 111 % of control | [5] 102 % of control | [6] 102 % of control

CC(=O)Nc1nc(C)c(CCC#N)c(=O)[nH]1
inactive: [4] 101 % of control | [7] 96 % of control | [5] 101 % of control | [8] 91 % of control | [6] 95 % of control | dose: 400.0 mg/kg/injection, schedule: Q04DX003 (ip), vehicle: saline 101 % of control

CCC[N+](C)(C)CCOC(=O)C1C2CC3OC(=O)C1C3C2 (stereo unspecified)
inactive: [7] 97 % of control | [8] 95 % of control

CC1CCN1Cc1ccccc1 (stereo unspecified)
inactive: dose: 12.5 mg/kg/injection, schedule: Q04DX003 (ip), vehicle: acetone 98 % of control | dose: 25.0 mg/kg/injection, schedule: Q04DX003 (ip), vehicle: acetone 104 % of control | dose: 50.0 mg/kg/injection, schedule: Q04DX003 (ip), vehicle: acetone 104 % of control | dose: 75.0 mg/kg/injection, schedule: Q01DX009 (ip), vehicle: saline 94 % of control

CCOC(=O)C1=CC(=O)C(C(=O)OCC)=CC1=O
inactive: dose: 100.0 mg/kg/injection, schedule: Q01DX001 (ip), vehicle: carboxymethylcellulose (CMC) 98 % of control | dose: 200.0 mg/kg/injection, schedule: Q01DX001 (ip), vehicle: carboxymethylcellulose (CMC) 98 % of control | dose: 400.0 mg/kg/injection, schedule: Q01DX001 (ip), vehicle: carboxymethylcellulose (CMC) 104 % of control

Nc1c(Cl)ncnc1Nc1ccc(O)cc1
inactive: dose: 25.0 mg/kg/injection, schedule: Q04DX003 (ip), vehicle: Klucel (hydroxypropylcellulose) (HPC) 96 % of control | dose: 50.0 mg/kg/injection, schedule: Q04DX003 (ip), vehicle: Klucel (hydroxypropylcellulose) (HPC) 96 % of control | [1] 101 % of control

Cc1cccc(NC(=S)/C(=C(/[O-])c2ccccc2)[n+]2ccc3ccccc3c2)c1
inactive: dose: 100.0 mg/kg/injection, schedule: Q04DX002 (ip), vehicle: saline with Tween-80 98 % of control | dose: 200.0 mg/kg/injection, schedule: Q04DX002 (ip), vehicle: saline with Tween-80 98 % of control | dose: 400.0 mg/kg/injection, schedule: Q04DX002 (ip), vehicle: saline with Tween-80 91 % of control

O=C(Nc1cccc2ccccc12)NC1CC1
inactive: dose: 100.0 mg/kg/injection, schedule: Q01DX009 (ip), vehicle: other 94 % of control | dose: 100.0 mg/kg/injection, schedule: Q04DX003 (ip), vehicle: other 97 % of control | dose: 200.0 mg/kg/injection, schedule: Q01DX009 (ip), vehicle: other 94 % of control | dose: 200.0 mg/kg/injection, schedule: Q04DX003 (ip), vehicle: other 96 % of control | dose: 400.0 mg/kg/injection, schedule: Q01DX009 (ip), vehicle: other 94 % of control | dose: 400.0 mg/kg/injection, schedule: Q04DX003 (ip), vehicle: other 87 % of control

C[Si](C)(C#CC1(O)CCCCC1)CCl
inactive: [1] 107 % of control | [2] 106 % of control | [3] 103 % of control

CC(C)c1ccc(/C=C2\C=Nc3ccccc32)cc1
inactive: dose: 100.0 mg/kg/injection, schedule: Q04DX002 (ip), vehicle: gum acacia 95 % of control | dose: 200.0 mg/kg/injection, schedule: Q04DX002 (ip), vehicle: gum acacia 92 % of control | dose: 400.0 mg/kg/injection, schedule: Q04DX002 (ip), vehicle: gum acacia 95 % of control
